Measured values: article doi:10.1101/2024.12.30.630793 (bioRxiv, 2024)
Like-named read-outs stand apart in the source and are kept apart here.

Experiments:
Acb4 (SPO1 Acb4) = target: T1, Acb4 (SPO1 Acb4) (Bacillus phage SPO1, UniProt B6V2Y3); assay: Electrophoretic mobility shift assay: titration of recombinant Acb4 with 20 nM alpha-32P-radiolabelled cyclic dinucleotide, 50 mM Tris-HCl pH 7.5, 5 mM MgCl2, 10 mM KCl, 1 mM TCEP, 30 min on ice, nondenaturing 6% PAGE, fraction bound fitted to a single binding model.; settings: n = 2
T1 construct: gene 1.3; recombinant from E. coli BL21(DE3)-RIL, N-terminal 6xHis-SUMO2 fusion, tag cleaved with SENP2; 96 amino acids, homotetramer
T1 sequence (B6V2Y3 1-96): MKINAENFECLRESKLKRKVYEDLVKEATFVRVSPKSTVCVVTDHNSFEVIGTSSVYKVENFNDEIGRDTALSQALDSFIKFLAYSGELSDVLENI

Bacillus phage SPO1 Acb4 = assay type: binding; settings: for Kd: fraction bound fit to a single binding model, n = 2
[1] = target: Bacillus phage SPO1 anti-CBASS 4 (Acb4) (Bacillus phage SPO1); assay: SEC-MALS; recombinant apo SPO1 Acb4 in solution; complex migrates at ~42.3 kDa

| Molecule | Kd (Acb4 (SPO1 Acb4)) | interaction with Acb4 (EMSA) (Bacillus phage SPO1 Acb4) | Kd (Bacillus phage SPO1 Acb4) | other results |
| --- | --- | --- | --- | --- |
| Nc1ncnc2c1ncn2[C@@H]1O[C@@H]2COP(=O)(O)O[C@@H]3[C@H](O)[C@@H](COP(=O)(O)O[C@H]2[C@H]1O)O[C@H]3n1ccc(=O)[nH]c1=O [2′3′-cUA, 2′3′-cyclic UMP-AMP, c[U(2′,5′)pA(3′,5′)p]] | 641 nM |  |  |  |
| Nc1ncnc2c1ncn2[C@@H]1O[C@@H]2COP(=O)(O)O[C@@H]3[C@H](O)[C@@H](COP(=O)(O)O[C@H]2[C@H]1O)O[C@H]3n1ccc(=O)[nH]c1=O [2′3′-cUA] |  | recognizes | 641 nM |  |
| Nc1ncnc2c1ncn2[C@@H]1O[C@@H]2COP(=O)(O)O[C@H]3[C@@H](O)[C@H](n4cnc5c(N)ncnc54)O[C@@H]3COP(=O)(O)O[C@H]2[C@H]1O [3′3′-cAA, 3′3′-c-di-AMP] |  | No interaction was detected |  |  |
| Nc1nc2c(ncn2[C@@H]2O[C@@H]3COP(=O)(O)O[C@H]4[C@@H](O)[C@H](n5cnc6c(N)ncnc65)O[C@@H]4COP(=O)(O)O[C@H]3[C@H]2O)c(=O)[nH]1 [3′3′-cGAMP, 3′3′-cyclic GMP-AMP, c[G(3′,5′)pA(3′,5′)p]] | 157 nM |  |  |  |
| Nc1nc2c(ncn2[C@@H]2O[C@@H]3COP(=O)(O)O[C@H]4[C@@H](O)[C@H](n5cnc6c(N)ncnc65)O[C@@H]4COP(=O)(O)O[C@H]3[C@H]2O)c(=O)[nH]1 [3′3′-cGAMP, 3′3′-cyclic GMP-AMP] |  |  | ~157 nM | Kd (Bacillus phage SPO1 Acb4; listed as 3'3'-cGAMP): 157 nM |
| Nc1nc2c(ncn2[C@@H]2O[C@@H]3COP(=O)(O)O[C@H]4[C@@H](O)[C@H](n5cnc6c(=O)[nH]c(N)nc65)O[C@@H]4COP(=O)(O)O[C@H]3[C@H]2O)c(=O)[nH]1 [3′3′-cGG, 3′3′-c-di-GMP] |  | No interaction was detected |  |  |
| Nc1ncnc2c1ncn2[C@@H]1O[C@@H]2COP(=O)(O)O[C@H]3[C@@H](O)[C@H](n4ccc(=O)[nH]c4=O)O[C@@H]3COP(=O)(O)O[C@H]2[C@H]1O [3′3′-cUA, 3′3′-cyclic UMP-AMP, c[U(3′,5′)pA(3′,5′)p]] | 262 nM |  |  |  |
| Nc1ncnc2c1ncn2[C@@H]1O[C@@H]2COP(=O)(O)O[C@H]3[C@@H](O)[C@H](n4ccc(=O)[nH]c4=O)O[C@@H]3COP(=O)(O)O[C@H]2[C@H]1O [3′3′-cUA] |  | recognizes | 262 nM |  |
| Bacillus phage SPO1 anti-CBASS 4 (Acb4) (natural protein) |  |  |  | stoichiometry N [1]: 4 |
